Test results reported in patent US20170334899A1, “AMINO-SUBSTITUTED ISOTHIAZOLES” (Bayer Pharma Aktiengesellschaft, priority 2014, published 2017).

Columns and labels:
CDK2/CycE = target: T1, CDK2/CycE (Homo sapiens, UniProt P24941); assay: CDK2/CycE kinase assay (TR-FRET); assay type: biochemical; conditions: avg, read-out: CDK2 avg (IC50 [mol/l])
T1 construct: GST; purchased ProQinase GmbH (Freiburg, Germany); host or cells: insect cells (Sf9)
Summary of the method: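 Read-out is a TR-FRET 665/620 nm emission ratio from EDTA-stopped reactions detected with anti-pRB(pSer807/pSer811), Eu-labelled anti-mouse IgG and streptavidin-XL665, scaled between no-enzyme and uninhibited wells. Reaction: Sf9-expressed GST-CDK2/GST-CycE, 15 min compound preincubation, 10 μM ATP, 0.75 μM biotin-peptide, 25 min, 22° C., pH 8.0 Tris buffer.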

[1] = target: T2, catalytic domain of human Bub1 (amino acids 704-1085) (Homo sapiens, UniProt O43683); assay: Bub1 kinase assay (TR-FRET); assay type: biochemical; conditions: 10 μM ATP, avg, read-out: Bub1 avg (IC50 [mol/l])
T2 construct: catalytic domain of human Bub1 (amino acids 704-1085); His6 (N); made in house; host or cells: insect cells (Hi5)
T2 sequence (O43683 704-1085): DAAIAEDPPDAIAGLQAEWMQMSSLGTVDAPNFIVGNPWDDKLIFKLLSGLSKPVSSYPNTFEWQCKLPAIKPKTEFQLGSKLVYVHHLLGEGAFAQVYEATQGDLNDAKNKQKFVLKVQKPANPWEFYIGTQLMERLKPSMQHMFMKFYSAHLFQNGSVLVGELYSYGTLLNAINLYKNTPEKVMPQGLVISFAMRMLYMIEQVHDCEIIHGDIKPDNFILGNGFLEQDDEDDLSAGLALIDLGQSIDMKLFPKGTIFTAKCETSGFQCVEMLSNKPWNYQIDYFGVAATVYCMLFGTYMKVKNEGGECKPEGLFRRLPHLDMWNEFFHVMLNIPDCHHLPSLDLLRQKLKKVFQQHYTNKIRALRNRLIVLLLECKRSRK
Summary of the method: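 Readout is the 665/620 nm TR-FRET ratio from anti-phosphoserine antibody, Eu-labelled anti-mouse IgG and streptavidin-XL665, scaled between no-enzyme and uninhibited controls. Reaction: 1 μM biotinylated peptide, 10 μM ATP, 60 min, 22 °C, after 15 min compound preincubation with His6-Bub1 (704-1085, insect-expressed, ~200 ng/ml).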

Row | IC50 (CDK2/CycE) [µM] | IC50 [1] [µM] | Structure (SMILES)
1 | > 20 | > 20 | Cc1nsc(Nc2cnc(C(F)(F)F)cn2)c1C(=O)Nc1ccc(O[C@H]2CCN(CC(F)F)C2)nc1 [Example 382, N-(6-{[(3S)-1-(2,2-difluoroethyl)pyrrolidin-3-yl]oxy}pyridin-3-yl)-3-methyl-5-{[5-(trifluoromethyl)pyrazin-2-yl]amino}-1,2-thiazole-4-carboxamide]
2 | > 20 | ≥ 20 | Cc1nsc(Nc2cnc(C(F)(F)F)cn2)c1C(=O)Nc1ccc(O[C@H]2CCN(CC(F)(F)F)C2)nc1 [Example 383, 3-methyl-N-(6-{[(3S)-1-(2,2,2-trifluoroethyl)pyrrolidin-3-yl]oxy}pyridin-3-yl)-5-{[5-(trifluoromethyl)pyrazin-2-yl]amino}-1,2-thiazole-4-carboxamide]
3 | > 20 | ≥ 20 | Cc1nsc(Nc2cnc(C(F)(F)F)cn2)c1C(=O)Nc1ccc(O[C@H]2CCN(CCC(F)(F)F)C2)nc1 [Example 384, 3-methyl-5-{[5-(trifluoromethyl)pyrazin-2-yl]amino}-N-(6-{[(3S)-1-(3,3,3-trifluoropropyl)pyrrolidin-3-yl]oxy}pyridin-3-yl)-1,2-thiazole-4-carboxamide]
4 | > 20 | > 20 | Cc1nsc(Nc2cnc(C(F)(F)F)cn2)c1C(=O)Nc1ccc(O[C@@H]2CCCN(CC(F)(F)F)C2)nc1 [Example 386, 3-methyl-N-(6-{[(3R)-1-(2,2,2-trifluoroethyl)piperidin-3-yl]oxy}pyridin-3-yl)-5-{[5-(trifluoromethyl)pyrazin-2-yl]amino}-1,2-thiazole-4-carboxamide]
5 | > 20 | > 20 | Cc1nsc(Nc2cnc(C(F)(F)F)cn2)c1C(=O)Nc1ccc(O[C@@H]2CCCN(CCC(F)(F)F)C2)nc1 [Example 387, 3-methyl-5-{[5-(trifluoromethyl)pyrazin-2-yl]amino}-N-(6-{[(3R)-1-(3,3,3-trifluoropropyl)piperidin-3-yl]oxy}pyridin-3-yl)-1,2-thiazole-4-carboxamide]
6 | > 20 | > 20 | Cc1nsc(Nc2cnc(C(F)(F)F)cn2)c1C(=O)Nc1ccc(OCC2CCN(CC(F)(F)F)CC2(F)F)nc1 (stereo not drawn) [Example 392, N-(6-{[3,3-difluoro-1-(2,2,2-trifluoroethyl)piperidin-4-yl]methoxy}pyridin-3-yl)-3-methyl-5-{[5-(trifluoromethyl)pyrazin-2-yl]amino}-1,2-thiazole-4-carboxamide]
7 | > 20 | > 20 | CCN1CCC(COc2ccc(NC(=O)c3c(C)nsc3Nc3cnc(C(F)(F)F)cn3)cn2)C(F)(F)C1 (stereo not drawn) [Example 393, N-{6-[(1-ethyl-3,3-difluoropiperidin-4-yl)methoxy]pyridin-3-yl}-3-methyl-5-{[5-(trifluoromethyl)pyrazin-2-yl]amino}-1,2-thiazole-4-carboxamide]
8 | > 20 | > 20 | Cc1nsc(Nc2cnc(C(F)(F)F)cn2)c1C(=O)Nc1ccc(F)c(OC[C@@H]2CCCN(CCC(F)(F)F)C2)c1 [Example 395, N-(4-fluoro-3-{[(3R)-1-(3,3,3-trifluoropropyl)piperidin-3-yl]methoxy}phenyl)-3-methyl-5-{[5-(trifluoromethyl)pyrazin-2-yl]amino}-1,2-thiazole-4-carboxamide]
9 | > 20 | > 20 | CCCCN1CCC(COc2ccc(NC(=O)c3c(C)nsc3Nc3cnc(C(F)(F)F)cn3)cn2)C(F)(F)C1 (stereo not drawn) [Example 396, N-{6-[(1-butyl-3,3-difluoropiperidin-4-yl)methoxy]pyridin-3-yl}-3-methyl-5-{[5-(trifluoromethyl)pyrazin-2-yl]amino}-1,2-thiazole-4-carboxamide]
10 | > 20 | > 20 | Cc1nsc(Nc2cnc(C(F)(F)F)cn2)c1C(=O)Nc1ccc(F)c(OC[C@H]2CCN(CC(F)F)C2)c1 [Example 397, N-(3-{[(3S)-1-(2,2-difluoroethyl)pyrrolidin-3-yl]methoxy}-4-fluorophenyl)-3-methyl-5-{[5-(trifluoromethyl)pyrazin-2-yl]amino}-1,2-thiazole-4-carboxamide]
11 | > 20 | > 20 | Cc1nsc(Nc2cnc(C(F)(F)F)cn2)c1C(=O)Nc1ccc(F)c(OC[C@H]2CCN(CC(F)(F)F)C2)c1 [Example 398, N-(4-fluoro-3-{[(3S)-1-(2,2,2-trifluoroethyl)pyrrolidin-3-yl]methoxy}phenyl)-3-methyl-5-{[5-(trifluoromethyl)pyrazin-2-yl]amino}-1,2-thiazole-4-carboxamide]
12 | > 20 | > 20 | Cc1nsc(Nc2cnc(C(F)(F)F)cn2)c1C(=O)Nc1ccc(F)c(OC[C@H]2CCN(CCC(F)(F)F)C2)c1 [Example 399, N-(4-fluoro-3-{[(3S)-1-(3,3,3-trifluoropropyl)pyrrolidin-3-yl]methoxy}phenyl)-3-methyl-5-{[5-(trifluoromethyl)pyrazin-2-yl]amino}-1,2-thiazole-4-carboxamide]
